According to patent EP0006845A1, “Pharmaceutical composition comprising a 5-aroyl-1-C1-5 alkyl-pyrrole-2-acetic acid compound and acetaminophen or acetylsalicylic acid” (McNeilab, Inc., priority 1978, dated 1980):

What was measured:
[1] = test system: adjuvant arthritic rats; assay: adjuvant arthritis test, evaluation of bone degeneration (osteogenic changes) in the non-injected hind paw; type: in vivo, female Wistar, Lewis rats; conditions: Rattus norvegicus
Excerpt: (§1) The efficacy of the novel combination of this invention in inhibiting inflammation and osteogenic degeneration is particularly seen in the adjuvant arthritis test. […] The adjuvant arthritis test, a test in which adjuvant arthritis which results both in inflammation and osteogenic changes is induced by Mycobacterium butvricum and in which the effect of the test compounds on each effect can be Determined, is considered to be .most useful for evaluation of compounds which may be suitable for the treatment of rheumatoid arthritis and other arthritic diseases. The test procedure, in which the effect on inflammation is determined by paw volume changes and the effect on osteogenic changes is determined by microscopic observation, is described by Wong et al, in J. Pharmacol.Exp.Ther. 185, 127-138, 1973, and is employed in the present determination of the potentiation of the antiarthritic properties of 5-aroyl-l-loweralkyl-pyrrole-2-acetic acid derivatives by aspirin or acetaminophen.
(§2) Briefly, in this procedure, adjuvant arthritis is induced in female Wistar, Lewis rats (Charles River Breeding Laboratories. Inc., Wiimington, Mass.) weighing 160-190 gm by a single subcutaneous injection of 0.75 mg Mycobacterium butyricum (Difco) into the left hind paw. The non-injected hind paw remains a normal size for the first seven days. Swelling begins to appear in the non-injected paw of the first rats on Day 8. Using the paw volume determination technique (a technique in which rat paws are dippedin mercury to the hairline and the volume of displacement determined by a modified Van Arman mercury displacement method as described in the aforementioned paper of Wong et al), the time progress curve of volume changes in the non-injected (contralateral) paw is followed. […] The mean onset time for 100 rats is found to be 11.6 days with a standard deviation of 1.9 days and the frequency of onset time values distributed normally between Days 8 and 19. Thus, determinations of antiarthritic activity are made in the period Day 11 to Day 28.
(§3) For determination of anti-inflammatory properties two different evaluations are made: (a) the evaluation of paw volume during the Phase II and Phase III periods and, (b) the evaluation of osteogenic (bone) degenration during the Phase IV period.
For evaluation of bone degenerations, normal and adjuvant arthritic rats are sacrificed under C02, after the paw volume measurements have been completed on Day 28. The hind legs are removed above the knees and skinned and the soft tissues dissected away with care to avoid injury to bone and articular structures. The leg bones are then immersed in 2 percent potassium hydroxide solution for approximately four to five days until the remaining soft tissues becomes properly macerated and/or transparent, and the bones are fully visible. The leg bones are stained with Alizarin Red (0.01 percent in 2 percent KOH) for eight hours, and then processed through increasing concentrations of glycerol in water (20, 40, 60, 80 and 100 percent) for purposes of clearing the tissues for microscopic observation. The distal end of the tibiae, the tarsals, metatarsals, phalanges, and sesamoids are evaluated under a Stereozoom Microscope (a special type of dissecting microscope, product of Bausch and Lomb).
Osteogenic changes for each bone (in 31 bone categories) in the non-injected hind paw are graded on a scale of from 0 to 10 (increasing numerical value corresponding to increasing severity of bone degeneration). A total bone degeneration score is obtained (maximum score/paw = 310 points) and then expressed as a percent score. The mean percent score (95 percent confidence limits) for saline control groups from 26 experiments (184 animals) is found to be 53.4 (50.9-55.9). Percent score values for drug treated animals are expressed as a percent inhibition relative to the mean for the saline control group. Data is evaluated statistically and ED50 values with 95 percent confidence limits are calculated.

[2] = test system: adjuvant arthritic rats; assay: adjuvant arthritis test, evaluation of paw volume of the non-injected hind paw; type: in vivo, female Wistar, Lewis rats; conditions: for inhibition at 200 mg/kg: Acetaminophen 200 mg/kg/day alone; for inhibition at 800 mg/kg: Acetaminophen 800 mg/kg/day alone
Excerpt: as §1, §2, §3
For evaluation of paw volume, adjuvant arthritic rats with early but significant signs of arthritis in the contralateral paw are selected on Day 11 and randomly assigned to the various groups of 10 animals in each group. All test -animals are dosed-daily (per os) with the test compound, preferably as sodium salt, or in saline for 17 days (Days 11 to 27 inclusive). Control animals are dosed with an equivalent volume of saline. The paw volumes of the non-injected paws are determined initially on Day 11 and again on Days 15, 18, 22, 25, and 28. The paw volumes are then compared with normal paw volumes of adjuvant arthitic rats previously determined from a reference curve relating normal paw volume to body weight. The volume of each individual rat which is greater than the normal volume is utilized in the analysis of the data. Values for drug treated animals are expressed as a percent inhibition of the paw volume change relative to the mean value for saline controls. Data is evaluated statistically and ED50 values with 95 percent confidence limits are calculated. The method for statistical analysis is described in detail in the aforementioned paper of Wong et al. The term "ED50" refers to the dose of drug required to produce 50 percent antagonism of the paw volume changes observed in the saline treated adjuvant arthritis controls. Suppression of paw volume changes reflects anti-inflammatory and antiarthritic activity of a test drug.

[3] = drug alone, suppression of osteogenic changes, data from several experiments pooled, read-out: ED50 and 95 percent C.L.
[4] = Rattus norvegicus, 672 h, Table IX, Day 28, read-out: Percent Inhibition ± S.E. (Day 28)
[5] = Rattus norvegicus, read-out: Percent Inhibition of Paw Volume ± S.E.
[6] = Rattus norvegicus, po, 672 h, drug given alone per os, Day 28, read-out: ED50 Values and 95 Percent C.L.

SMILES: CC(=O)Nc1ccc(O)cc1 [Acetaminophen, acetaminophen]
- inhibition at 50 mg/kg ([1]; Acetaminophen 50 mg/kg/day alone, read-out: Percent Inhibition of Bone Degeneration ± S.E.): 0%
- inhibition at 200 mg/kg ([1]; Acetaminophen 200 mg/kg/day alone, read-out: Percent Inhibition of Bone Degeneration ± S.E.): 12.6 ± 6.5%
- inhibition at 800 mg/kg ([1]; Acetaminophen 800 mg/kg/day alone, read-out: Percent Inhibition of Bone Degeneration ± S.E.): 32.9 ± 3.4%
- ED50 [1, 3]: 1670 mg/kg
- inhibition at 50 mg/kg ([2]; Rattus norvegicus, 672 h, Table IX, Acetaminophen 50 mg/kg/day alone, Day 28, read-out: Percent Inhibition ± S.E. (Day 28)): 7.6 ± 6.1%
- inhibition at 200 mg/kg [2, 4]: 29 ± 12.8%
- inhibition at 800 mg/kg [2, 4]: 75.3 ± 3.9%
- inhibition at 50 mg/kg ([2]; Rattus norvegicus, Acetaminophen 50 mg/kg/day alone, read-out: Percent Inhibition of Paw Volume ± S.E.): 0%
- inhibition at 200 mg/kg [2, 5]: 27.2 ± 15.5%
- inhibition at 800 mg/kg [2, 5]: 67.8 ± 5.7%
- ED50 [2, 6]: 576 mg/kg
- minimal effective dose ([2]; Rattus norvegicus, given alone, statistically significant difference (p<0.05) from saline treated controls, read-out: minimum effective dose (MED)): 320 mg/kg/day
- Percent Inhibition ± S.E. (Day 28) ([2]; Table VII, Dose of Acetaminophen 100 alone, Day 28): 2.7 ±17.4%
- Percent Inhibition ± S.E. (Day 28) ([2]; Table VII, Dose of Acetaminophen 200 alone, Day 28): 6.6 ± 11.4%
- Percent Inhibition ± S.E. (Day 28) ([2]; Table VII, Dose of Acetaminophen 400 alone, Day 28): 31.6 ± 6.1%
- dose of acetaminophen required to suppress the tolmetin ED50 by 50 percent ([2]; acetaminophen given with tolmetin): 35.3 (13.4-81.3) mg/kg/day

SMILES: Cc1ccc(C(=O)c2ccc(CC(=O)O)n2C)cc1 [Tolmetin, 1-methyl-5-p-toluoyl-pyrrole-2-acetic acid]
- inhibition at 7.5 mg/kg ([1]; Tolmetin 7.5 mg/kg/day alone, read-out: Percent Inhibition of Bone Degeneration ± S.E.): 18.6 ± 6.9%
- inhibition at 30 mg/kg ([1]; Tolmetin 30.0 mg/kg/day alone, read-out: Percent Inhibition of Bone Degeneration ± S.E.): 26.3 ± 3.7%
- inhibition at 120 mg/kg ([1]; Tolmetin 120.0 mg/kg/day alone, read-out: Percent Inhibition of Bone Degeneration ± S.E.): 51.7 ± 6.4%
- inhibition at 5.6 mg/kg ([1]; bone degeneration, Tolmetin 5.6 mg/kg/day alone, read-out: Percent Inhibition ± S. E.): 26.6 ± 7%
- inhibition at 11.1 mg/kg ([1]; bone degeneration, Tolmetin 11.1 mg/kg/day alone, read-out: Percent Inhibition ± S. E.): 28.7 ± 7.7%
- inhibition at 16.7 mg/kg ([1]; bone degeneration, Tolmetin 16.7 mg/kg/day alone, read-out: Percent Inhibition ± S. E.): 27.5 ± 4.9%
- inhibition at 33.3 mg/kg ([1]; bone degeneration, Tolmetin 33.3 mg/kg/day alone, read-out: Percent Inhibition ± S. E.): 33.4 ± 3.9%
- inhibition at 50 mg/kg ([1]; bone degeneration, Tolmetin 50.0 mg/kg/day alone, read-out: Percent Inhibition ± S. E.): 34.9 ± 2.7%
- inhibition at 100 mg/kg ([1]; bone degeneration, Tolmetin 100 mg/kg/day alone, read-out: Percent Inhibition ± S. E.): 54.2 ± 1.9%
- ED50 ([1]; Table III, ED50 of tolmetin without acetaminophen, read-out: ED50 values): 110 mg/kg
- ED50 ([1]; Table V, ED50 of tolmetin without Aspirin, read-out: ED50): 89.7 mg/kg
- ED50 [1, 3]: 110 mg/kg
- ED50 ([2]; Rattus norvegicus, 672 h, Table IV, ED50 of tolmetin without Aspirin, Day 28, read-out: ED50): 32 mg/kg
- inhibition at 5.6 mg/kg ([2]; Rattus norvegicus, 672 h, Tolmetin 5.6 mg/kg/day alone, Day 28, read-out: Percent Inhibition ± S.E. (Day 28)): 30.5 ± 5.1%
- inhibition at 11.1 mg/kg ([2]; Rattus norvegicus, 672 h, Tolmetin 11.1 mg/kg/day alone, Day 28, read-out: Percent Inhibition ± S.E. (Day 28)): 34.5 ± 8%
- inhibition at 16.7 mg/kg ([2]; Rattus norvegicus, 672 h, Tolmetin 16.7 mg/kg/day alone, Day 28, read-out: Percent Inhibition ± S.E. (Day 28)): 58.4 ± 8.1%
- inhibition at 33.3 mg/kg ([2]; Rattus norvegicus, 672 h, Tolmetin 33.3 mg/kg/day alone, Day 28, read-out: Percent Inhibition ± S.E. (Day 28)): 50.8 ± 8.4%
- inhibition at 50 mg/kg ([2]; Rattus norvegicus, 672 h, Tolmetin 50 mg/kg/day alone, Day 28, read-out: Percent Inhibition ± S.E. (Day 28)): 62.6 ± 2.7%
- inhibition at 100 mg/kg ([2]; Rattus norvegicus, 672 h, Tolmetin 100 mg/kg/day alone, Day 28, read-out: Percent Inhibition ± S.E. (Day 28)): 66.4 ± 3.9%
- ED50 ([2]; Rattus norvegicus, Table II, tolmetin without acetaminophen, read-out: ED50 values of Tolmetin): 32 mg/kg
- inhibition at 7.5 mg/kg ([2]; Rattus norvegicus, Tolmetin 7.5 mg/kg/day alone, read-out: Percent Inhibition of Paw Volume ± S.E.): 37.8 ± 8.8%
- inhibition at 30 mg/kg ([2]; Rattus norvegicus, Tolmetin 30.0 mg/kg/day alone, read-out: Percent Inhibition of Paw Volume ± S.E.): 49.3 ± 9.7%
- inhibition at 120 mg/kg ([2]; Rattus norvegicus, Tolmetin 120.0 mg/kg/day alone, read-out: Percent Inhibition of Paw Volume ± S.E.): 78.4 ± 3%
- ED50 ([2]; Rattus norvegicus, po, 360 h, drug given alone per os, Day 15, read-out: ED50 Values and 95 Percent C.L.): 42.1 mg/kg
- ED50 ([2]; Rattus norvegicus, po, 432 h, drug given alone per os, Day 18, read-out: ED50 Values and 95 Percent C.L.): 40.6 mg/kg
- ED50 ([2]; Rattus norvegicus, po, 528 h, drug given alone per os, Day 22, read-out: ED50 Values and 95 Percent C.L.): 32.4 mg/kg
- ED50 ([2]; Rattus norvegicus, po, 600 h, drug given alone per os, Day 25, read-out: ED50 Values and 95 Percent C.L.): 29.5 mg/kg
- ED50 [2, 6]: 26.4 mg/kg
- ED50 Values and 95 Percent C.L. ([2]; drug given alone per os, Day 28, 40320 min): 26.4 (22.3 - 29.6) mg/kg/day

SMILES: Cc1cc(CC(=O)O)n(C)c1C(=O)c1ccc(Cl)cc1 [1,4-dimethyl-5-p-chlorobenzoyl-pyrrole-2-acetic acid]
- ED50 ([2]; Rattus norvegicus, 672 h, Table VII, ED50 of the pyrrole compound without acetaminophen, Day 28, read-out: ED50): 0.4 mg/kg
- inhibition at 0.11 mg/kg/day ([2]; Rattus norvegicus, 672 h, Table VII, pyrrole compound 0.11 mg/kg/day alone, Day 28, read-out: Percent Inhibition ± S.E. (Day 28)): 27.4 ± 10.1%
- inhibition at 0.33 mg/kg/day ([2]; Rattus norvegicus, 672 h, Table VII, pyrrole compound 0.33 mg/kg/day alone, Day 28, read-out: Percent Inhibition ± S.E. (Day 28)): 45 ± 6%
- inhibition at 1 mg/kg/day ([2]; Rattus norvegicus, 672 h, Table VII, pyrrole compound 1.0 mg/kg/day alone, Day 28, read-out: Percent Inhibition ± S.E. (Day 28)): 68 ± 7.8%
- ED50 ([2]; Rattus norvegicus, 672 h, Table VIII, ED50 of the pyrrole compound without Aspirin, Day 28, read-out: ED50): 0.728 mg/kg
- inhibition at 0.125 mg/kg/day ([2]; Rattus norvegicus, 672 h, Table VIII, pyrrole compound 0.125 mg/kg/day alone, Day 28, read-out: Percent Inhibition ± S.E. (Day 28)): 17.5 ± 7.5%
- inhibition at 0.5 mg/kg/day ([2]; Rattus norvegicus, 672 h, Table VIII, pyrrole compound 0.5 mg/kg/day alone, Day 28, read-out: Percent Inhibition ± S.E. (Day 28)): 43.8 ± 11.8%
- inhibition at 2 mg/kg/day ([2]; Rattus norvegicus, 672 h, Table VIII, pyrrole compound 2.0 mg/kg/day alone, Day 28, read-out: Percent Inhibition ± S.E. (Day 28)): 68.2 ± 5.3%

SMILES: Cn1c(CC(=O)O)cc(Cl)c1C(=O)c1ccc(Cl)cc1 [4-chloro-5-p-chlorobenzoyl-1-nethyl-pyrrole-2-acetic acid]
- ED50 ([2]; Rattus norvegicus, 672 h, Table IX, ED50 of the pyrrole compound without acetaminophen, Day 28, read-out: ED50): 0.054 mg/kg
- inhibition at 0.02 mg/kg/day ([2]; Rattus norvegicus, 672 h, Table IX, pyrrole compound 0.02 mg/kg/day alone, Day 28, read-out: Percent Inhibition ± S.E. (Day 28)): 18.6 ± 11.7%
- inhibition at 0.06 mg/kg/day ([2]; Rattus norvegicus, 672 h, Table IX, pyrrole compound 0.06 mg/kg/day alone, Day 28, read-out: Percent Inhibition ± S.E. (Day 28)): 61.3 ± 5.3%
- inhibition at 0.18 mg/kg/day ([2]; Rattus norvegicus, 672 h, Table IX, pyrrole compound 0.18 mg/kg/day alone, Day 28, read-out: Percent Inhibition ± S.E. (Day 28)): 78.9 ± 8.7%
